Source: patent publication US11952365B2, “Anti-viral compounds” (Aligos Therapeutics, Inc., priority 2020, dated 2024)
Like-named read-outs stand apart in the source and are kept apart here.

How the values were obtained:
HRV3C = HRV3C (Human rhinovirus 14, UniProt P03303); experiment: HRV3C protease assay (duplex, SAMDI-MS); format: biochemical, HRV; settings: 30 mins preincubation
Outline: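 Compounds are preincubated 30 min with the protease pair before substrate addition, and cleavage proceeds 30 min at room temperature. Product peptides are measured by SAMDI-MS relative to internal standards, with IC50 obtained from a four-parameter fit.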

in vitro [1] = settings: African green monkey, VeroE6 + CP (CC50)
in vitro [2] = settings: human
[3] = system: SARS-CoV-2-GHB-03021/2020; experiment: microbe, parasite or virus in culture; format: cell-based
human cathepsin L = biological target: T1, human cathepsin L (Homo sapiens, UniProt P07711); experiment: cathepsin L assay; format: biochemical; settings: 10 pM human cathepsin L, Z-FR-AMC 2 μM, class symbols
T1 construct: purchased R&D Systems
Outline: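 Reactions began by adding 2 μM (final) Z-FR-AMC substrate to 10 pM human cathepsin L that had been preincubated 30 min with inhibitor. Kinetic AMC fluorescence at 355/460 nm over 30 min at 2-min intervals; four-parameter fitting gave IC50 values.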

[4] = system: SARS-CoV-2-GHB-03021/2020; experiment: SARS-CoV-2 Infection Model in Huh7 Cells; format: cell-based; settings: Severe acute respiratory syndrome coronavirus 2, Huh-7, 96 h, SARS-CoV-2, day 4 p.i., MTS
3CLpro = 3CLpro (Severe acute respiratory syndrome coronavirus 2, UniProt P0DTD1); experiment: SARS-CoV-2 3CLpro protease assay (duplex, SAMDI-MS); format: biochemical; design: For the duplex assay, 3CLpro and HRV3C was added; settings: 30 mins preincubation
[5] = Cytotoxicity plates without OC43 virus (cell-titer-glo); format: cell-based, human; settings: human; HeLa cells without OC43 virus, class symbols
Outline: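 Run as a virus-free counterpart of the OC43 cytopathic-effect assay. Attached HeLa cells received compound dilutions in EMEM with 2% FBS and were kept 6 days at 33 °C. Cell viability was then measured by CellTiter-Glo luminescence.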

[6] = system: human beta-coronavirus OC43; experiment: microbe, parasite or virus in culture; format: cell-based; settings: Betacoronavirus 1, OC43, HeLa, 144 h, OC43 in HeLa cells, 6 days at 33° C., read-out: EC50
[7] = HRV3C, class symbols, read-out: HRV IC50
[8] = Vero E6-eGFP cells with CP-100356, absence of virus, MTS, numeric bounds
[9] = Severe acute respiratory syndrome coronavirus 2, Vero C1008, 96 h; read-out: VeroE6 + CP (EC50)
[10] = 3CLpro, class symbols, read-out: SARS-Cov-2 IC50
[11] = HRV3C, bound, read-out: HRV IC50
[12] = Vero E6-eGFP cells with CP-100356, absence of virus, MTS, class symbols

Structure (SMILES)	IC50 (HRV3C; [7])	CC50 (in vitro [1]; [8])	CC50 (in vitro [2])	EC50 [3, 9]	IC50 (human cathepsin L)	EC50 ([4]; numeric bounds)	IC50 (3CLpro; [10])	CC50 at 6 days [5]	EC50 ([6]; class symbols)	IC50 (HRV3C; [11])	CC50 (in vitro [1]; [12])	EC50 ([4]; class symbols)	CC50 (in vitro [1])	EC50 ([3]; Severe acute respiratory syndrome coronavirus 2, Vero C1008, 96 h, read-out: VeroE6 + CP (EC50))	EC50 ([6]; bound)	IC50 (3CLpro; SARS-Cov-2 IC50, 3CLpro, class symbols)	IC50 (HRV3C; HRV IC50, HRV3C, bound)	IC50 (HRV3C; HRV IC50, HRV3C, class symbols)	IC50 (3CLpro; 3CLpro, bound, read-out: SARS-Cov-2 IC50)
COc1cccc2[nH]c(C(=O)N3CCC4(CC4)C[C@H]3C(=O)N[C@@H](C[C@@H]3CCNC3=O)C(=O)C(=O)NC3CC3)cc12 [Compound 179]	0.2 to 2 µM	> 50 µM	> 10 µM	10 to 100 µM	1 to 10 µM	> 10 µM	< 0.02 µM												
O=C(NCc1ccccc1)C(=O)[C@H](C[C@@H]1CCNC1=O)NC(=O)[C@@H]1C[C@@H](C2CCCCC2)CN1C(=O)c1cc2ccccc2[nH]1 [Compound 20]	0.2 to 2 µM		1 to 10 µM	1 to 10 µM	≥ 10 µM	> 100 µM	0.2 to 2 µM	> 10 µM	< 0.1 µM										
CC(C)CCCNC(=O)C(=O)[C@H](C[C@@H]1CCNC1=O)NC(=O)[C@@H]1[C@H]2CCC[C@H]2CN1C(=O)c1cc2c(Cl)cc(Cl)cc2[nH]1 [Compound 183]			1 to 10 µM	< 1 µM	1 to 10 µM		0.02 to 0.2 µM			> 10 µM	1 to 10 µM	1 to 10 µM							
O=C(NC1CC1)C(=O)[C@H](C[C@@H]1CCNC1=O)NC(=O)[C@@H]1CC2(CCN1C(=O)c1cc3c(C4CC4)cccc3[nH]1)CC2 [Compound 180]	0.2 to 2 µM	> 50 µM	> 10 µM	1 to 10 µM	1 to 10 µM		0.02 to 0.2 µM					1 to 10 µM							
CS(=O)(=O)c1cccc2[nH]c(C(=O)N3C[C@@H]4CCC[C@@H]4[C@H]3C(=O)N[C@@H](C[C@@H]3CCNC3=O)C(=O)CO)cc12 [Compound 150, (1S,3aR,6aS)—N-[(2S)-4-hydroxy-3-oxo-1-[(3S)-2-oxopyrrolidin-3-yl]butan-2-yl]-2-(4-methanesulfonyl-1H-indole-2-carbonyl)-hexahydro-1H-cyclopenta[c]pyrrole-1-carboxamide]			> 50 µM		≥ 10 µM	> 50 µM		> 10 µM					> 50 µM	> 50 µM	> 10 µM	0.2 to 2 µM			
O=C(NC1CC1)C(=O)[C@H](C[C@@H]1CCNC1=O)NC(=O)[C@@H]1CC2(CCN1C(=O)c1cc3ccccc3o1)CC2 [Compound 181]	0.2 to 2 µM	> 50 µM	> 10 µM	1 to 10 µM	1 to 10 µM		0.02 to 0.2 µM					1 to 10 µM							
O=C(NCCCC(F)(F)F)C(=O)[C@H](C[C@@H]1CCNC1=O)NC(=O)[C@@H]1[C@H]2CCC[C@H]2CN1C(=O)c1cc2c(Cl)cc(Cl)cc2[nH]1 [Compound 182]			1 to 10 µM	1 to 10 µM	≥ 10 µM	> 10 µM	0.2 to 2 µM			> 10 µM	> 10 µM								
O=C(NCc1ccccc1)C(=O)C(C[C@@H]1CCCNC1=O)NC(=O)[C@@H]1[C@H]2CCC[C@H]2CN1C(=O)c1cc2ccccc2[nH]1 (stereo partly drawn) [Compound 17, (1S,3aR,6aS)—N-(4-(benzylamino)-3,4-dioxo-1-((S)-2-oxopiperidin-3-yl)butan-2-yl)-2-(1H-indole-2-carbonyl)octahydrocyclopenta[c]pyrrole-1-carboxamide]	2 to 20 µM		> 10 µM		1 to 10 µM		0.02 to 0.2 µM	> 10 µM	0.1 to 1 µM			1 to 10 µM							
N#Cc1cccc2[nH]c(C(=O)N3C[C@@H]4CCC[C@@H]4[C@H]3C(=O)NC(C[C@@H]3CCNC3=O)C(=O)COCc3ccccc3)cc12 (stereo partly drawn) [Compound 66A, (1S,3aR,6aS)—N-[4-(benzyloxy)-3-oxo-1-[(3S)-2-oxopyrrolidin-3-yl]butan-2-yl]-2-(4-cyano-1H-indole-2-carbonyl)-hexahydro-1H-cyclopenta[c]pyrrole-1-carboxamide]			> 10 µM		≥ 10 µM		0.2 to 2 µM	> 10 µM	0.1 to 1 µM	> 10 µM		1 to 10 µM							
COCC(=O)[C@H](C[C@@H]1CCNC1=O)NC(=O)[C@@H]1[C@H]2CCC[C@H]2CN1C(=O)c1cc2c(OC)cccc2[nH]1 [Compound 71, (1S,3aR,6aS)-2-(4-methoxy-1H-indole-2-carbonyl)-N-[(2S)-4-methoxy-3-oxo-1-[(3S)-2-oxopyrrolidin-3-yl]butan-2-yl]-hexahydro-1H-cyclopenta[c]pyrrole-1-carboxamide]			> 100 µM		≥ 10 µM		0.2 to 2 µM	> 10 µM	0.1 to 1 µM			1 to 10 µM					> 10 µM		
COc1cccc2[nH]c(C(=O)N3Cc4ccccc4C[C@H]3C(=O)N[C@@H](C[C@@H]3CCNC3=O)C(=O)C(=O)NC3CC3)cc12 [Compound 97, (S)—N—((S)-4-(cyclopropylamino)-3,4-dioxo-1-((S)-2-oxopyrrolidin-3-yl)butan-2-yl)-2-(4-methoxy-1H-indole-2-carbonyl)-1,2,3,4-tetrahydroisoquinoline-3-carboxamide]			> 100 µM		≥ 10 µM	> 100 µM	0.2 to 2 µM	> 10 µM							> 10 µM			0.02 to 0.2 µM	
COc1cccc2[nH]c(C(=O)N3C[C@@H]4CCC[C@@H]4[C@H]3C(=O)NC(C[C@@H]3CCNC3=O)C(=O)C(N)=O)cc12 (stereo partly drawn) [Compound 56, 3-{[(1S,3aR,6aS)-2-(4-methoxy-1H-indole-2-carbonyl)-hexahydro-1H-cyclopenta[c]pyrrol-1-yl]formamido}-2-oxo-4-[(3S)-2-oxopyrrolidin-3-yl]butanamide]	0.2 to 2 µM		> 100 µM		≥ 10 µM		0.02 to 0.2 µM	> 10 µM	10 to 100 µM			10 to 100 µM							
COc1cccc2oc(C(=O)N3C[C@@H]4CCC[C@@H]4[C@H]3C(=O)N[C@@H](C[C@@H]3CCNC3=O)C(=O)CO)cc12 [Compound 94, (1S,3aR,6aS)—N-[(2S)-4-hydroxy-3-oxo-1-[(3S)-2-oxopyrrolidin-3-yl]butan-2-yl]-2-(4-methoxy-1-benzofuran-2-carbonyl)-hexahydro-1H-cyclopenta[c]pyrrole-1-carboxamide]			> 100 µM		≥ 10 µM		0.2 to 2 µM	> 10 µM	1 to 10 µM	> 10 µM		10 to 100 µM							
COc1cccc2[nH]c(C(=O)N3C[C@H]4[C@@H]([C@H]3C(=O)N[C@@H](C[C@@H]3CCCNC3=O)C(=O)C(=O)NC3CC3)C4(C)C)cc12 [Compound 57, (3S)—N-cyclopropyl-3-{[(1R,2S,5S)-3-(4-methoxy-1H-indole-2-carbonyl)-6,6-dimethyl-3-azabicyclo[3.1.0]hexan-2-yl]formamido}-2-oxo-4-[(3S)-2-oxopiperidin-3-yl]butanamide]	0.2 to 2 µM		> 100 µM		≥ 10 µM		0.02 to 0.2 µM	> 10 µM	0.1 to 1 µM			1 to 10 µM							
O=C(NCc1ccccc1)C(=O)[C@H](Cc1ccncc1)NC(=O)[C@@H]1CC2(CC2)CN1C(=O)c1cc2ccccc2[nH]1 [Compound 112]			> 10 µM		1 to 10 µM	> 100 µM		> 10 µM		> 10 µM					> 10 µM				> 10 µM
N#Cc1cccc2[nH]c(C(=O)N3C[C@@H]4CCC[C@@H]4[C@H]3C(=O)N[C@@H](C[C@@H]3CCNC3=O)C(=O)CO)cc12 [Compound 66, (1S,3aR,6aS)-2-(4-cyano-1H-indole-2-carbonyl)-N-[(2S)-4-hydroxy-3-oxo-1-[(3S)-2-oxopyrrolidin-3-yl]butan-2-yl]-hexahydro-1H-cyclopenta[c]pyrrole-1-carboxamide]			> 100 µM		≥ 10 µM		0.02 to 0.2 µM	> 10 µM	1 to 10 µM	> 10 µM		10 to 100 µM							
COc1cccc2[nH]c(C(=O)N3C[C@@H]4CCC[C@@H]4[C@H]3C(=O)N[C@@H](CN3C[C@H](O)CC3=O)C(=O)C(=O)NC3CC3)cc12 [Compound 178]		> 50 µM	> 10 µM	> 50 µM	≥ 10 µM	> 10 µM	2 to 20 µM			> 10 µM									
